Reference: ChEMBL document CHEMBL2021919, “Computational analysis of structure-based interactions and ligand properties can predict efflux effects on antibiotics” (2012)
Converted amounts (≈) assume the structure as drawn.

Tests used:
Salmonella typhimurium = assay: Ratio of MIC for wild type Salmonella typhimurium SH5014 to MIC for Salmonella typhimurium SH7616 harboring missense mutation in acrA/acrB gene by two-fold serial dilution method; type: functional, Salmonella enterica subsp. enterica serovar Typhimurium
Escherichia coli [1] = assay: Antimicrobial activity against wild type Escherichia coli expressing AcrAB-TolC efflux pump; type: functional
Escherichia coli [2] = assay: Ratio of MIC for wild type Escherichia coli TG1 to MIC for acrB-deficient Escherichia coli KAM3 by two-fold serial dilution method; type: functional
Escherichia coli [3] = assay: Ratio of MIC for wild type Escherichia coli JC7623 to MIC for acrAB-deficient Escherichia coli JZM120; type: functional
Escherichia coli [4] = assay: Ratio of MIC for wild type Escherichia coli HS414 to MIC for acrB-deficient Escherichia coli HS832 by agar dilution method; type: functional
Escherichia coli [5] = assay: Ratio of MIC for wild type Escherichia coli ECM1194 to MIC for acrAB-deficient Escherichia coli ECM1694; type: functional

Structure (SMILES) | Ratio (Salmonella typhimurium) | MIC (Escherichia coli [1]) [µg/mL] | Ratio (Escherichia coli [2]) | Ratio (Escherichia coli [3]) | Ratio (Escherichia coli [4]) | Ratio (Escherichia coli [5])
CC(=O)OCC1=C(C(=O)O)N2C(=O)[C@@H](NC(=O)CCC[C@@H](N)C(=O)O)[C@H]2SC1 [CEPHALOSPORIN C] | 1 | 16 (≈ 38.5 µM) | – | – | – | –
C[C@H]1[C@H](NC(=O)/C(=N\OC(C)(C)C(=O)O)c2csc(N)n2)C(=O)N1S(=O)(=O)O [AZTREONAM] | – | 0.05 (≈ 0.115 µM) | 1 | – | – | –
CC1(C)S[C@@H]2[C@H](NC(=O)CCC[C@@H](N)C(=O)O)C(=O)N2[C@H]1C(=O)O [ADICILLIN] | 1 | 8 (≈ 22.3 µM) | – | – | – | –
NC(=O)c1cc[n+](CC2=C(C(=O)[O-])N3C(=O)[C@@H](NC(=O)[C@@H](c4ccccc4)S(=O)(=O)O)[C@H]3SC2)cc1 [CEFSULODIN] | 1 | 16 (≈ 30 µM) | – | 1 | – | –
CCn1cc(C(=O)O)c(=O)c2cc(F)c(N3CCNCC3)cc21 [NORFLOXACIN] | – | 0.004 (≈ 0.0125 µM) | – | – | 1 | –
CO/N=C(\C(=O)N[C@@H]1C(=O)N2C(C(=O)[O-])=C(C[N+]3(C)CCCC3)CS[C@H]12)c1csc(N)n1 | 1 | 0.0075 (≈ 0.0156 µM) | – | 1 | – | –
O=C(N[C@H](CO)[C@H](O)c1ccc([N+](=O)[O-])cc1)C(Cl)Cl [CHLORAMPHENICOL] | – | 4 (≈ 12.4 µM) | – | – | 8 | 4
CCN1CCN(C(=O)N[C@@H](C(=O)N[C@@H]2C(=O)N3C(C(=O)O)=C(CSc4nnnn4C)CS[C@H]23)c2ccc(O)cc2)C(=O)C1=O [CEFOPERAZONE] | – | 0.03 (≈ 0.0465 µM) | – | 2 | – | –
CC1(C)S[C@@H]2[C@H](NC(=O)C(C(=O)O)c3ccccc3)C(=O)N2[C@H]1C(=O)O (stereo partly specified) [CARBENICILLIN] | 4 | 1.56 (≈ 4.12 µM) | 1 | 1 | – | –
C[C@@H](O)[C@H]1C(=O)N2C(C(=O)O)=C([C@H]3CCCO3)S[C@H]12 [FAROPENEM] | – | 0.39 (≈ 1.37 µM) | 4 | – | – | –
CN(Cc1cnc2nc(N)nc(N)c2n1)c1ccc(C(=O)N[C@@H](CCC(=O)O)C(=O)O)cc1 [METHOTREXATE] | – | 640 (≈ 1410 µM) | – | – | 8 | –
CC1(C)S[C@@H]2[C@H](NC(=O)Cc3ccccc3)C(=O)N2[C@H]1C(=O)O [PENICILLIN G] | 32 | 8 (≈ 23.9 µM) | – | 2 | – | –
CCN1CCN(C(=O)N[C@@H](C(=O)N[C@@H]2C(=O)N3[C@@H]2SC(C)(C)[C@@H]3C(=O)O)c2ccccc2)C(=O)C1=O [PIPERACILLIN] | – | 4 (≈ 7.73 µM) | – | – | – | –
CO/N=C(\C(=O)N[C@@H]1C(=O)N2C(C(=O)O)=C(CSc3nc(=O)c(O)nn3C)CS[C@H]12)c1csc(N)n1 [CEFTRIAXONE] | 2 | 0.015 (≈ 0.027 µM) | – | 1 | – | –
CC(=O)NS(=O)(=O)c1ccc(N)cc1 [SULFACETAMIDE] | – | 2000 (≈ 9340 µM) | – | – | 1 | –
Cc1nnc(SCC2=C(C(=O)O)N3C(=O)[C@@H](NC(=O)Cn4cnnn4)[C@H]3SC2)s1 [CEFAZOLIN] | 1 | 0.39 (≈ 0.858 µM) | – | 1 | – | –
CO[C@@H]1[C@@H](OC(N)=O)[C@@H](O)[C@H](Oc2ccc3c(O)c(NC(=O)c4ccc(O)c(CC=C(C)C)c4)c(=O)oc3c2C)OC1(C)C [NOVOBIOCIN] | – | 32 (≈ 52.2 µM) | 64 | 32 | 64 | –
CCn1cc(C(=O)O)c(=O)c2ccc(C)nc21 [NALIDIXIC ACID] | – | 3.12 (≈ 13.5 µM) | – | – | 2 | –
Cn1nnnc1SCC1=C(C(=O)O)N2C(=O)[C@@H](NC(=O)[C@H](O)c3ccccc3)[C@H]2SC1 [CEFAMANDOLE] | – | 4 (≈ 8.65 µM) | 4 | 4 | – | –
CCOc1ccc2ccccc2c1C(=O)N[C@@H]1C(=O)N2[C@@H]1SC(C)(C)[C@@H]2C(=O)O [NAFCILLIN] | – | 200 (≈ 483 µM) | 128 | – | – | –
CC1(C)S[C@@H]2[C@H](NC(=O)[C@H](NC(=O)N3CCN(S(C)(=O)=O)C3=O)c3ccccc3)C(=O)N2[C@H]1C(=O)O [MEZLOCILLIN] | – | 1 (≈ 1.85 µM) | – | 32 | – | –

Structure (SMILES) | Ratio (Salmonella typhimurium) | MIC (Escherichia coli [1]) [µg/mL] | Ratio (Escherichia coli [2]) | Ratio (Escherichia coli [3]) | Ratio (Escherichia coli [4]) | Ratio (Escherichia coli [5])
CO/N=C(\C(=O)N[C@@H]1C(=O)N2C(C(=O)O)=C(COC(C)=O)CS[C@H]12)c1csc(N)n1 [CEFOTAXIME] | 4 | 0.12 (≈ 0.263 µM) | 2 | – | – | –
CN(C)[C@@H]1C(O)=C(C(N)=O)C(=O)[C@@]2(O)C(O)=C3C(=O)c4c(O)cccc4[C@@](C)(O)[C@H]3C[C@@H]12 [TETRACYCLINE] | – | 1.25 (≈ 2.81 µM) | – | – | 8 | –
O=C(Cc1cccs1)N[C@@H]1C(=O)N2C(C(=O)[O-])=C(C[n+]3ccccc3)CS[C@H]12 [CEPHALORIDINE] | 2 | 2 (≈ 4.81 µM) | – | 2 | – | –
CC(C)(O/N=C(\C(=O)N[C@@H]1C(=O)N2C(C(=O)[O-])=C(C[n+]3ccccc3)CS[C@H]12)c1csc(N)n1)C(=O)O [CEFTAZIDIME] | – | 0.12 (≈ 0.22 µM) | – | 1 | – | –
CC1(C)S[C@@H]2[C@H](NC(=O)C(c3ccccc3)S(=O)(=O)O)C(=O)N2[C@H]1C(=O)O (stereo partly specified) [SULBENICILLIN] | 4 | 8 (≈ 19.3 µM) | 1 | – | – | –
CO[C@@]1(NC(=O)C(C(=O)[O-])c2ccc(O)cc2)C(=O)N2C(C(=O)[O-])=C(CSc3nnnn3C)CO[C@@H]21.[Na+].[Na+] (stereo partly specified) [MOXALACTAM DISODIUM] | 1 | 0.12 | – | – | – | –
Cc1onc(-c2ccccc2Cl)c1C(=O)N[C@@H]1C(=O)N2[C@@H]1SC(C)(C)[C@@H]2C(=O)O [CLOXACILLIN] | 256 | 256 (≈ 587 µM) | 128 | 128 | – | –
Cc1onc(-c2ccccc2)c1C(=O)N[C@@H]1C(=O)N2[C@@H]1SC(C)(C)[C@@H]2C(=O)O [OXACILLIN] | – | 1020 (≈ 2550 µM) | 256 | 512 | – | –
CO/N=C(\C(=O)N[C@@H]1C(=O)N2C(C(=O)O)=C(COC(N)=O)CS[C@H]12)c1ccco1 [CEFUROXIME] | – | 1.56 (≈ 3.68 µM) | 8 | 16 | – | –
CS(=O)(=O)c1ccc([C@@H](O)[C@@H](CF)NC(=O)C(Cl)Cl)cc1 [FLORFENICOL] | – | 6.25 (≈ 17.4 µM) | – | – | 8 | –
CO/N=C(\C(=O)N[C@@H]1C(=O)N2C(C(=O)[O-])=C(C[n+]3cccc4c3CCC4)CS[C@H]12)c1csc(N)n1 [CEFPIROME] | – | 0.015 (≈ 0.0291 µM) | – | 1 | – | –
CC(=O)OCC1=C(C(=O)O)N2C(=O)[C@@H](NC(=O)Cc3cccs3)[C@H]2SC1 [CEPHALOTHIN] | – | 2 (≈ 5.04 µM) | – | – | – | –
CO[C@@]1(NC(=O)CSCC#N)C(=O)N2C(C(=O)O)=C(CSc3nnnn3C)CS[C@@H]21 [CEFMETAZOLE] | 1 | 0.05 (≈ 0.106 µM) | 2 | 1 | – | –
CC1(C)S[C@@H]2[C@H](NC(=O)[C@H](N)c3ccc(O)cc3)C(=O)N2[C@H]1C(=O)O [AMOXICILLIN] | – | 4 (≈ 10.9 µM) | – | 1 | – | –
CC1(C)S[C@@H]2[C@H](NC(=O)[C@H](NC(=O)N3CCNC3=O)c3ccccc3)C(=O)N2[C@H]1C(=O)O [AZLOCILLIN] | – | 16 (≈ 34.7 µM) | – | 4 | – | –
CO[C@@]1(NC(=O)Cc2cccs2)C(=O)N2C(C(=O)O)=C(COC(N)=O)CS[C@@H]21 [CEFOXITIN] | 4 | 4 (≈ 9.36 µM) | – | 4 | – | –
Nc1ccc2cc3ccc(N)cc3nc2c1 [PROFLAVINE] | – | 100 (≈ 478 µM) | – | – | 8 | –
C[n+]1c2cc(N)ccc2cc2ccc(N)cc21.[Cl-] [EUFLAVINE] | – | 400 | – | – | 128 | –
CC1(C)S[C@@H]2[C@H](/N=C/N3CCCCCC3)C(=O)N2[C@H]1C(=O)O [AMDINOCILLIN] | – | 0.5 (≈ 1.54 µM) | – | 2 | – | –
CC[n+]1c(-c2ccccc2)c2cc(N)ccc2c2ccc(N)cc21.[Br-] [HOMIDIUM BROMIDE] | – | 800 | – | – | 256 | –
